The text below walks through data of PubChem BioAssay (NCI).

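Interpolation was linear, between the two tested concentrations surrounding the appropriate level; five concentrations were tested over 48 hours in 96-well plates. At the TGI there is no net growth.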

Test systems include SNB-19 CNS; MDA-MB-231 breast; UO-31 renal; NCI/ADR-RES ovarian; HOP-62 NSCLC; CAKI-1 renal; K-562 leukemia; KM12 colon; MCF7 breast; RXF 393 renal; SF-539 CNS; SK-MEL-2 melanoma; OVCAR-4 ovarian; HL-60(TB) leukemia.
Holding throughout (experiment): NCI-60 cell line screen, 48 h

`CCN(CC)CCNc1ccc2ncn3c4c(OC)ccc(OC)c4c(=O)c1c23`: the TGI is 58.7 µM in the assay on SNB-19 CNS; 29.1 µM in the assay on MDA-MB-231 breast; above 100 µM in the assay on UO-31 renal; 31.1 µM with NCI/ADR-RES ovarian; above 100 µM in the assay with HOP-62 NSCLC; above 100 µM in the assay on CAKI-1 renal. The TGI with K-562 leukemia turned out to be 49.4 µM; in the assay on KM12 colon, 22.6 µM; in the assay with MCF7 breast it was 17 µM; with RXF 393 renal it was 10.3 µM; in the assay on SF-539 CNS, 44.1 µM.
`CCOC(=O)[C@@H]1C[C@H]1c1ccc(O)c(O)c1`: the TGI in the assay with SK-MEL-2 melanoma was 61.5 µM; with SNB-19 CNS it was above 100 µM; in the assay on MDA-MB-231 breast it was 63.1 µM; in the assay with UO-31 renal, above 100 µM; in the assay with NCI/ADR-RES ovarian, above 100 µM; with HOP-62 NSCLC, above 100 µM. Besides, the TGI was above 100 µM in the assay on CAKI-1 renal; 51.3 µM in the assay with K-562 leukemia; above 100 µM in the assay with KM12 colon; above 100 µM in the assay with MCF7 breast; 87.4 µM with RXF 393 renal; above 100 µM in the assay on SF-539 CNS.
Regarding `N#Cc1nc(C2CC2)oc1N`, the TGI in the assay on SK-MEL-2 melanoma, with SNB-19 CNS, in the assay with MDA-MB-231 breast, in the assay on NCI/ADR-RES ovarian, in the assay on HOP-62 NSCLC and in the assay with CAKI-1 renal was above 100 µM each time. For the same molecule, the TGI in the assay with K-562 leukemia, in the assay with OVCAR-4 ovarian, with KM12 colon, with MCF7 breast, in the assay on RXF 393 renal and in the assay on SF-539 CNS was above 100 µM throughout.
Take `N#Cc1nc(CSCc2ccccc2)oc1N`: the TGI in the assay on SK-MEL-2 melanoma, with MDA-MB-231 breast, in the assay on UO-31 renal, in the assay on NCI/ADR-RES ovarian, with HOP-62 NSCLC and with CAKI-1 renal was above 100 µM in each case. For the same molecule, the TGI in the assay on OVCAR-4 ovarian, in the assay with KM12 colon, in the assay on MCF7 breast, in the assay on RXF 393 renal and in the assay on SF-539 CNS was above 100 µM throughout.
For the molecule `O=c1[nH]c(=O)n(C2CC(O)C(CO)O2)cc1OCCc1ccccc1` (stereo unspecified), the TGI in the assay on SNB-19 CNS, in the assay with MDA-MB-231 breast, in the assay on UO-31 renal, with NCI/ADR-RES ovarian, with HOP-62 NSCLC and in the assay with CAKI-1 renal was above 100 µM in each case. For the same molecule, the TGI with K-562 leukemia, in the assay with OVCAR-4 ovarian, in the assay on KM12 colon, in the assay on MCF7 breast, in the assay with RXF 393 renal and in the assay on HL-60(TB) leukemia was above 100 µM throughout.
Regarding `O=S(=O)(C(=Ic1ccccc1)S(=O)(=O)C(F)(F)C(F)(F)C(F)(F)C(F)(F)F)C(F)(F)C(F)(F)C(F)(F)C(F)(F)F`, the TGI amounted to 28.5 µM in the assay with SNB-19 CNS; 55.4 µM in the assay with MDA-MB-231 breast; 25.8 µM with UO-31 renal; 59.8 µM in the assay on NCI/ADR-RES ovarian; 30.7 µM in the assay on HOP-62 NSCLC; 25.9 µM in the assay on CAKI-1 renal. In addition, the TGI came to 16.4 µM with K-562 leukemia; 14.7 µM in the assay on OVCAR-4 ovarian; 41.7 µM in the assay on KM12 colon; 18.1 µM with MCF7 breast; 62 µM in the assay with HL-60(TB) leukemia; 28.8 µM with SF-539 CNS.
For `CSc1ccccc1P(c1ccccc1SC)c1ccccc1SC`, the TGI in the assay on SK-MEL-2 melanoma, with SNB-19 CNS, with MDA-MB-231 breast, with UO-31 renal, in the assay with NCI/ADR-RES ovarian and with HOP-62 NSCLC was above 100 µM in each case. In addition, the TGI in the assay with CAKI-1 renal, in the assay on K-562 leukemia, in the assay with OVCAR-4 ovarian, in the assay with KM12 colon, in the assay on MCF7 breast and with SF-539 CNS was above 100 µM throughout.
Take `O=C(O)c1nc2cc(C(F)(F)F)ccc2nc1Nc1ccc(Cl)c(Cl)c1`: the TGI in the assay on SK-MEL-2 melanoma stood at 8.25 µM; in the assay on SNB-19 CNS, 53.5 µM; in the assay on MDA-MB-231 breast, 48.8 µM; in the assay on UO-31 renal it was 27.6 µM; with NCI/ADR-RES ovarian, 23.2 µM; with HOP-62 NSCLC, 27.6 µM. Moreover, the TGI in the assay on CAKI-1 renal is 80.3 µM; in the assay with K-562 leukemia it was above 100 µM; with OVCAR-4 ovarian, 65.9 µM; in the assay on KM12 colon it was 26.2 µM; in the assay on MCF7 breast, 90.1 µM; in the assay on RXF 393 renal, 37.5 µM. Besides, the TGI in the assay on SF-539 CNS is 23.7 µM.
On to `Cc1ccc(N/C(Sc2ccccc2)=C(/C(Cl)=C(Cl)Cl)[N+](=O)[O-])c(C)c1`, for which the TGI with SK-MEL-2 melanoma was 36.9 µM; with SNB-19 CNS it was 54 µM; in the assay on MDA-MB-231 breast it was 33.2 µM; with NCI/ADR-RES ovarian, 70.4 µM; in the assay on HOP-62 NSCLC it was 59.7 µM; with CAKI-1 renal, 30.7 µM. Further, the TGI with K-562 leukemia is 45.8 µM; in the assay on OVCAR-4 ovarian it was above 100 µM; in the assay with KM12 colon, 32.2 µM; in the assay on MCF7 breast, 28 µM; in the assay on HL-60(TB) leukemia, 56.2 µM; in the assay with SF-539 CNS, 45.4 µM.
Regarding `O=C(O)CN=C(C(=NCC(=O)O)c1ccccc1)c1ccccc1`, the TGI with SK-MEL-2 melanoma, in the assay on SNB-19 CNS, in the assay with MDA-MB-231 breast, in the assay on UO-31 renal, with NCI/ADR-RES ovarian and in the assay with HOP-62 NSCLC was above 100 µM in each case. Also, the TGI in the assay on CAKI-1 renal, in the assay on K-562 leukemia, with OVCAR-4 ovarian, with KM12 colon, in the assay on MCF7 breast and in the assay on RXF 393 renal was above 100 µM in each case.
`O=c1[nH]c(=O)n(C2CC(O)C(CO)O2)cc1NN=NCCc1ccccc1` (stereo unspecified): the TGI in the assay with SNB-19 CNS, in the assay with MDA-MB-231 breast, in the assay with UO-31 renal, with NCI/ADR-RES ovarian, with HOP-62 NSCLC and in the assay with CAKI-1 renal was above 100 µM throughout. Moreover, the TGI in the assay on K-562 leukemia, in the assay with OVCAR-4 ovarian, in the assay with KM12 colon, in the assay with MCF7 breast, with RXF 393 renal and with HL-60(TB) leukemia was above 100 µM in each case.
